Laboratory results taken from patent US11603386B2, “Insect, tick, and mite repellent derived from Xenorhabdus budapestensis” (Wisconsin Alumni Research Foundation, priority 2017, dated 2023).

Test system: Aedes aegypti
Assay: Repellent screening assay (in vitro membrane feeding, Hemotek feeder, treated cloth)
Assay type: in vivo
Details: for RD90: concentration producing 90% reduction in feeding rate, 30 min exposure
From the text: FIG. 1 is a photograph of the equipment used for the repellent screening assay. The apparatus includes a temperature-controlled feeder unit which includes a collagen casing covered by conventional cheese cloth. The collagen mimics the surface of human and is in contact with a heating element (not seen in FIG. 1) whose temperature is controlled by the temperature controller. The collagen pad is saturated with a solution that mimics human blood. The compound whose repellency is to be tested is applied to the cheese cloth, which is then affixed to the collagen pad. In the main panel in FIG. 1, the feeder unit is shown in its operational position, on top of a container in which are mosquitos (or any other arthropod) that is to be repelled. […] In practice, a known amount of putative repellent is applied to the cheese cloth. Unfed mosquitos, for example, are within the mosquito container. The feeder unit is then placed on top of the mosquito container for a pre-determined amount of time. The mosquitos are then sacrificed and examined to determine how many mosquitos fed (i.e., were not repelled) and how many mosquitos were still unfed after the test (i.e., were repelled). In this fashion, very reliable data can be generated regarding the effectiveness of any putative repellent composition. See Katritzky, A. R., et al. (2008) Proc. Nat. Acad. Sci. (US), 105:7359-7364 and Katritzky, A. R., et al. (2010) Journal of Med. Entomol., 47:924-938.
Unfed mosquitos are then used as test subjects. After the time course of each experiment is completed, the mosquitos are sacrificed and examined to determine how many mosquitos have fed (and thus were not repelled) versus how many mosquitos remain unfed (and thus were repelled). Fed versus unfed mosquitos can be separated by simple visual examination. Fed mosquites have an engorged, distended appearance. Representative images depicting the appearance of fed vs unfed mosquitoes resulting from the repellent screening assays is shown in FIG. 7. Images clearly show engorged abdomens and food red dye when mosquitoes were exposed to water only as negative repellent controls (FIG. 7, panel A).
A colony of the Aedes aegypti Liverpool strain was maintained at the University of Wisconsin according to standard procedures reported previously (Paskewitz et al., 1999; Kajla et al., 2010, Christensen et al., 1984). Anopheles gambiae and Culex pipiens (Iowa strain) were reared according to established protocols (Aliota et al., 2016) in a 100 square feet walk-in environmental chamber maintained at 26.5±0.5° C. and 80±5% relative humidity. For egg production, adult female mosquitoes were offered defibrinated rabbit blood (HemoStat Laboratories, Dixon, Calif., USA) via a Hemotek-brand membrane feeding system (Discovery Workshops, Accrington, UK) once a week. Adult mosquitoes were maintained on a constant exposure to 10% sucrose on cotton balls and larvae were fed Tetramin®-brand fish food. For repellent assays, nulliparous, mated, twenty 7-10 days old adult female mosquitoes were separated in screened pint-size paper containers (Neptune Paper Products, Fort Lee, N.J., USA). Mosquitoes were starved for 12-16 hours before the repellent assay. Mosquitoes were exposed to repellent compounds for 30 min at room temperature (incandescent light, 25-26° C.) between 10:00 am and 4:00 pm (see below for repellent assay set-up).
A Hemotek-brand feeding system was used to keep the feeding solution at a constant temperature set at 37° C. […]

Row | Structure (SMILES) | RE90 (relative efficacy) | Feeding (engorgement / red dye in abdomen) (1%, positive control, FIG. 7 panel B) | RD90
1 | CCN(CC)C(=O)c1cccc(C)c1 [DEET, N,N-diethyl-3-methylbenzamide] | 1 | no feeding occurred | 0.188 Percent concentration (v/v)
2 | CCC(C)OC(=O)N1CCCCC1CCO (centres unmarked) [Picaridin] | 0.37 |  | 0.498 Percent concentration (v/v)
